Laboratory results as given in US11529341B2, “Bicyclic compounds as inhibitors of PD1/PD-L1 interaction/activation” (JUBILANT PRODEL LLC, priority 2018, dated 2022).

Target: T1, PD-1/PD-L1 interaction (Homo sapiens, UniProt Q9NZQ7)
T1 construct: Tag1 (undisclosed kit tag); purchased CisBio 63ADK000CPAPEG
Assay: PD-1/PD-L1 Homogenous Time-Resolved Fluorescence (HTRF) binding assay (CisBio kit)
Conditions: Biochemical PD1/PD-L1 inhibition
Procedure: PD-L1 Enzyme Assay: Homogenous Time-Resolved Fluorescence (HTRF) Binding Assay
All binding studies were performed using PD-1/PD-L1 Binding Assay Kit from CisBio (Catalog #63ADK000CPAPEG), according to the manufacturer's protocol. The interaction between Tag1-PD-1 and […] was detected by anti-Tag1-Eu^3+ (HTRF donor) and anti-Tag2-XL665 (HTRF acceptor). When the donor and acceptor antibodies were brought to close proximity due to PD-1 and PD-L1 binding, excitation of the donor antibody triggered fluorescent resonance energy transfer (FRET) towards the acceptor antibody, which in turn emitted specifically at 665 nm. This specific signal is positively proportional to PD-1/PD-L1 interaction. The compounds blocking PD-1/PD-L1 interaction will cause a reduction in HTRF signal. The necessary reagents were mixed in the following order: 2 μl compounds (or diluents buffer), 4 μl PD-L1 protein, 4 μl PD-1 protein. After an incubation of 15 minutes, 5 μl of anti-Tag1-Eu^3+ and 5 μl of anti-Tag2-XL665 were added. The plate was sealed and incubated at room temperature for 1 h. The fluorescence emission was read at two different wavelengths (665 nm and 620 nm) on a BMG PheraStar® multi-plate reader. Results were calculated from the 665 nm and 620 nm fluorescence signal and expressed in HTRF ratio=(665 nm/620 nm)×10^4.

T1 sequence (Q9NZQ7 19-238 limits assumed): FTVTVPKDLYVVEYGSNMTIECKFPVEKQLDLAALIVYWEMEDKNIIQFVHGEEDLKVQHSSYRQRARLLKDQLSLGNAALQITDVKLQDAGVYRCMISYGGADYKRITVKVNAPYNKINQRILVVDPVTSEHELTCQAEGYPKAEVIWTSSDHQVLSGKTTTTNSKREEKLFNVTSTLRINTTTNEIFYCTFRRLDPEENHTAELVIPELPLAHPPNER

Structure (SMILES)	IC50
Cc1c(COc2ccc(CN(C)CC(=O)O)c3c2CCC3)cccc1-c1ccccc1 [Compound 22, N-methyl-N-((7-((2-methyl-[1,1′-biphenyl]-3-yl)methoxy)-2,3-dihydro-1H-inden-4-yl)methyl)glycine]	100 to 500 nM
Cc1c(COc2ccc(CNC(C)CC(=O)O)c3c2CCC3)cccc1-c1ccccc1 (centres unmarked) [Compound 23, 3-(((7-((2-methyl-[1,1′-biphenyl]-3-yl)methoxy)-2,3-dihydro-1H-inden-4-yl)methyl)amino)butanoic acid]	> 500 nM
Cc1c(COc2ccc(CNC(C)C(=O)O)c3c2CCC3)cccc1-c1ccccc1 (centres unmarked) [Compound 24, ((7-((2-methyl-[1,1′-biphenyl]-3-yl)methoxy)-2,3-dihydro-1H-inden-4-yl)methyl)alanine]	> 500 nM
COc1cc(OCc2cccc(-c3ccccc3)c2C)c2c(c1CN1C[C@H](O)C[C@H]1C(=O)O)CCC2 [Compound 25, (2S,4R)-4-hydroxy-1-((5-methoxy-7-((2-methyl-[1,1′-biphenyl]-3-yl)methoxy)-2,3-dihydro-1H-inden-4-yl)methyl)pyrrolidine-2-carboxylic acid]	< 100 nM
COc1cc(OCc2cccc(-c3ccccc3)c2C)c2c(c1CN1CCCC[C@H]1C(=O)O)CCC2 [Compound 26, (S)-1-((5-methoxy-7-((2-methyl-[1,1′-biphenyl]-3-yl)methoxy)-2,3-dihydro-1H-inden-4-yl)methyl)piperidine-2-carboxylic acid]	100 to 500 nM
Cc1c(COc2ccc(CN3CCCC[C@H]3C(=O)O)c3c2CCCC3)cccc1-c1ccccc1 [Compound 27, 1-((4-((2-methyl-[1,1′-biphenyl]-3-yl)methoxy)-5,6,7,8-tetrahydronaphthalen-1-yl)methyl)piperidine-2-carboxylic acid]	100 to 500 nM
CC(=O)NCCNCc1cc(C)c(OCc2cccc(-c3ccccc3)c2C)c2c1CCC2 [Compound 28, N-(2-(((6-methyl-7-((2-methyl-[1,1′-biphenyl]-3-yl)methoxy)-2,3-dihydro-1H-inden-4-yl)methyl)amino)ethyl)acetamide]	> 500 nM
Cc1cc(CN2C[C@H](O)C[C@H]2C(=O)O)c2c(c1OCc1cccc(-c3ccccc3)c1C)CCC2 [Compound 29, (2S,4R)-4-hydroxy-1-((6-methyl-7-((2-methyl-[1,1′-biphenyl]-3-yl)methoxy)-2,3-dihydro-1H-inden-4-yl)methyl)pyrrolidine-2-carboxylic acid]	100 to 500 nM
CC(=O)NCCNCc1cc(Cl)c(OCc2cccc(-c3ccccc3)c2C)c2c1CCC2 [Compound 30, N-(2-(((6-chloro-7-((2-methyl-[1,1′-biphenyl]-3-yl)methoxy)-2,3-dihydro-1H-inden-4-yl)methyl)amino)ethyl)acetamide]	100 to 500 nM
Cc1c(COc2c(Cl)cc(CN3C[C@H](O)C[C@H]3C(=O)O)c3c2CCC3)cccc1-c1ccccc1 [Compound 31, (2S,4R)-1-((6-chloro-7-((2-methyl-[1,1′-biphenyl]-3-yl)methoxy)-2,3-dihydro-1H-inden-4-yl)methyl)-4-hydroxypyrrolidine-2-carboxylic acid]	100 to 500 nM
COc1cc(OCc2cccc(-c3cccc(OCCCN4CCC(F)(F)C4)c3C)c2C)c2c(c1CNCCNC(C)=O)CCC2 [Compound 32, N-(2-(((7-((3′-(3-(3,3-difluoropyrrolidin-1-yl)propoxy)-2,2′-dimethyl-[1,1′-biphenyl]-3-yl)methoxy)-5-methoxy-2,3-dihydro-1H-inden-4-yl)methyl)amino)ethyl)acetamide]	100 to 500 nM
COc1cc(OCc2cccc(-c3cccc(OCCCN4CCC(F)(F)C4)c3C)c2C)c2c(c1CN1C[C@H](O)C[C@H]1C(=O)O)CCC2 [Compound 33, (2S,4R)-1-((7-((3′-(3-(3,3-difluoropyrrolidin-1-yl)propoxy)-2,2′-dimethyl-[1,1′-biphenyl]-3-yl)methoxy)-5-methoxy-2,3-dihydro-1H-inden-4-yl)methyl)-4-hydroxypyrrolidine-2-carboxylic acid]	> 500 nM
CC(=O)NCCNCc1c(OCc2cccc(C#N)c2)cc(OCc2cccc(-c3ccccc3)c2C)c2c1CCC2 [Compound 34, N-(2-(((5-((3-cyanobenzyl)oxy)-7-((2-methyl-[1,1′-biphenyl]-3-yl)methoxy)-2,3-dihydro-1H-inden-4-yl)methyl)amino)ethyl)acetamide]	< 100 nM
Cc1c(COc2cc(OCc3cccc(C#N)c3)c(CN3C[C@H](O)C[C@H]3C(=O)O)c3c2CCC3)cccc1-c1ccccc1 [Compound 35, (2S,4R)-1-((5-((3-cyanobenzyl)oxy)-7-((2-methyl-[1,1′-biphenyl]-3-yl)methoxy)-2,3-dihydro-1H-inden-4-yl)methyl)-4-hydroxypyrrolidine-2-carboxylic acid]	< 100 nM
Cc1c(COc2cc(OCc3cccc(C#N)c3)c(CN3CCCC[C@H]3C(N)=O)c3c2CCC3)cccc1-c1ccccc1 [Compound 37, (S)-1-((5-((3-cyanobenzyl)oxy)-7-((2-methyl-[1,1′-biphenyl]-3-yl)methoxy)-2,3-dihydro-1H-inden-4-yl)methyl)piperidine-2-carboxamide]	< 100 nM
Cc1c(COc2cc(OCc3cccc(C#N)c3)c(CNC(CO)(CO)CO)c3c2CCC3)cccc1-c1ccccc1 [Compound 38, 3-(((4-(((1,3-dihydroxy-2-(hydroxymethyl)propan-2-yl)amino)methyl)-7-((2-methyl-[1,1′-biphenyl]-3-yl)methoxy)-2,3-dihydro-1H-inden-5-yl)oxy)methyl)benzonitrile]	< 100 nM
Cc1c(COc2cc(OCc3cccc(C#N)c3)c(CN3CC4(COC4)C3)c3c2CCC3)cccc1-c1ccccc1 [Compound 39, 3-(((4-((2-oxa-6-azaspiro[3.3]heptan-6-yl)methyl)-7-((2-methyl-[1,1′-biphenyl]-3-yl)methoxy)-2,3-dihydro-1H-inden-5-yl)oxy)methyl)benzonitrile]	100 to 500 nM
Cc1c(COc2cc(OCc3cccc(C#N)c3)c(CN3CCCC(O)C3)c3c2CCC3)cccc1-c1ccccc1 (centres unmarked) [Compound 40, 3-(((4-((3-hydroxypiperidin-1-yl)methyl)-7-((2-methyl-[1,1′-biphenyl]-3-yl)methoxy)-2,3-dihydro-1H-inden-5-yl)oxy)methyl)benzonitrile]	< 100 nM
Cc1c(COc2cc(OCc3cccc(C#N)c3)c(CNCC(=O)O)c3c2CCC3)cccc1-c1ccccc1 [Compound 41, ((5-((3-cyanobenzyl)oxy)-7-((2-methyl-[1,1′-biphenyl]-3-yl)methoxy)-2,3-dihydro-1H-inden-4-yl)methyl)glycine]	< 100 nM
Cc1c(COc2cc(OCc3cccc(C#N)c3)c(CN3CC4(CC4)C[C@H]3C(=O)O)c3c2CCC3)cccc1-c1ccccc1 [Compound 42, (S)-5-((5-((3-cyanobenzyl)oxy)-7-((2-methyl-[1,1′-biphenyl]-3-yl)methoxy)-2,3-dihydro-1H-inden-4-yl)methyl)-5-azaspiro[2.4]heptane-6-carboxylic acid]	< 100 nM
Cc1c(COc2cc(OCc3cccc(C#N)c3)c(CNCCCC(=O)O)c3c2CCC3)cccc1-c1ccccc1 [Compound 44, 4-(((5-((3-cyanobenzyl)oxy)-7-((2-methyl-[1,1′-biphenyl]-3-yl)methoxy)-2,3-dihydro-1H-inden-4-yl)methyl)amino)butanoic acid]	< 100 nM
Cc1c(COc2cc(OCc3cncc(C#N)c3)c(CN3CCCC[C@H]3C(=O)O)c3c2CCC3)cccc1-c1ccccc1 [Compound 46, (S)-1-((5-((5-cyanopyridin-3-yl)methoxy)-7-((2-methyl-[1,1′-biphenyl]-3-yl)methoxy)-2,3-dihydro-1H-inden-4-yl)methyl)piperidine-2-carboxylic acid]	< 100 nM
Cc1c(COc2cc(OCc3cncc(C#N)c3)c(CN3C[C@H](O)C[C@H]3C(=O)O)c3c2CCC3)cccc1-c1ccccc1 [Compound 47, (2S,4R)-1-((5-((5-cyanopyridin-3-yl)methoxy)-7-((2-methyl-[1,1′-biphenyl]-3-yl)methoxy)-2,3-dihydro-1H-inden-4-yl)methyl)-4-hydroxypyrrolidine-2-carboxylic acid]	< 100 nM
CC(=O)NCCNCc1c(OCc2cncc(C#N)c2)cc(OCc2cccc(-c3ccccc3)c2C)c2c1CCC2 [Compound 48, N-(2-(((5-((5-cyanopyridin-3-yl)methoxy)-7-((2-methyl-[1,1′-biphenyl]-3-yl)methoxy)-2,3-dihydro-1H-inden-4-yl)methyl)amino)ethyl)acetamide]	< 100 nM
Cc1c(COc2cc(OCc3cncc(C#N)c3)c(CNC(CO)(CO)CO)c3c2CCC3)cccc1-c1ccccc1 [Compound 49, 5-(((4-(((1,3-dihydroxy-2-(hydroxymethyl)propan-2-yl)amino)methyl)-7-((2-methyl-[1,1′-biphenyl]-3-yl)methoxy)-2,3-dihydro-1H-inden-5-yl)oxy)methyl)nicotinonitrile]	< 100 nM
Cc1c(COc2cc(OCc3cncc(C#N)c3)c(CN3CCOC[C@H]3C(=O)O)c3c2CCC3)cccc1-c1ccccc1 [Compound 50, (S)-4-((5-((5-cyanopyridin-3-yl)methoxy)-7-((2-methyl-[1,1′-biphenyl]-3-yl)methoxy)-2,3-dihydro-1H-inden-4-yl)methyl)morpholine-3-carboxylicacid]	< 100 nM
